Among the data in patent publication US7691858B2, “Kinase inhibitors and methods of use thereof” (TargeGen, Inc., priority 2006, dated 2010) are IC50 and PI3K isoform selectivity values, retold here.

The structures appear in SMILES notation.

Assay [1] addresses T1, PI3Kγ (p120γ) (Homo sapiens, UniProt P48736).
T1 construct: purchased Upstate Cell Signaling Solutions / Upstate USA
The experiment in a line: PI3K luminescence kinase assay (Kinase-Glo), IC50. In kind it is biochemical. The settings on record: Table 1, mean of triplicate values. As for the experimental part: The IC50 value for compounds were determined using a luminescence-based kinase assay with recombinant phosphatidylinositol 3-kinase-p120γ (PI3K) obtained from Upstate Cell Signaling Solutions. […] The reaction was initiated by the addition of 10 μL of ATP to a final assay concentration of 3 μM. After the reaction was to proceed for 90 min, 50 μL of Kinase-Glo reagent (Promega) was added to terminate the reaction. This solution was then allowed to proceed for an additional 10 min to maximize the luminescence reaction. […] Two control reactions were also ran: one containing no compound and the second containing neither compound nor the phosphatidylinositol 4,5-bisphosphate substrate. Data from four wells were then averaged and used to determine IC50 values for the test compounds. IC50 values were derived from experimental data using the non-linear curve fitting capabilities of Prism (Version 4; GraphPad Software).
For orientation: Kinase-Glo measures the ATP left after a reaction by luminescence.

Assay [2] relates to four isoforms of PI3K. The experiment in a line: PI3K isoform profiles. In kind it is biochemical. As for the experimental part:
Identification of PI3K isoform-selective inhibitors.
Kinase assays: For PI3K assays, 40 μL reaction buffer (20 mM Tris, 4 mM MgCl2, 10 mM NaCl, pH 7.4) containing 50 μM D-myo-phosphatidylinositol 4,5-bisphosphate substrate (Echelon Biosciences, Salt Lake City, Utah) and the desired PI3K isoform (Upstate USA, Charlottesville, Va.) were aliquoted to 96 well plates; kinase concentrations were 250-500 ng/well, such that linear kinetics were achieved over 90 min. The compound to be tested was then added as 2.5 μL of a DMSO stock to final concentration range of 100 μM. to 1 nM. Reactions were initiated by addition of 10 μL of ATP to a final concentration of 3 μM, and after 90 min 50 μL of Kinase-Glo reagent (Promega, Madison, Wis.) added to quantify residual ATP levels; luminosity was measured using an Ultra 384 instrument (Tecan, Durham, N.C.). Control reactions omitting either test compound or substrate were also performed. IC50 values were derived from experimental data by non-linear curve fitting (Prism Version 4; GraphPad Software, San Diego, Calif.).

T1 sequence (P48736 whole entry): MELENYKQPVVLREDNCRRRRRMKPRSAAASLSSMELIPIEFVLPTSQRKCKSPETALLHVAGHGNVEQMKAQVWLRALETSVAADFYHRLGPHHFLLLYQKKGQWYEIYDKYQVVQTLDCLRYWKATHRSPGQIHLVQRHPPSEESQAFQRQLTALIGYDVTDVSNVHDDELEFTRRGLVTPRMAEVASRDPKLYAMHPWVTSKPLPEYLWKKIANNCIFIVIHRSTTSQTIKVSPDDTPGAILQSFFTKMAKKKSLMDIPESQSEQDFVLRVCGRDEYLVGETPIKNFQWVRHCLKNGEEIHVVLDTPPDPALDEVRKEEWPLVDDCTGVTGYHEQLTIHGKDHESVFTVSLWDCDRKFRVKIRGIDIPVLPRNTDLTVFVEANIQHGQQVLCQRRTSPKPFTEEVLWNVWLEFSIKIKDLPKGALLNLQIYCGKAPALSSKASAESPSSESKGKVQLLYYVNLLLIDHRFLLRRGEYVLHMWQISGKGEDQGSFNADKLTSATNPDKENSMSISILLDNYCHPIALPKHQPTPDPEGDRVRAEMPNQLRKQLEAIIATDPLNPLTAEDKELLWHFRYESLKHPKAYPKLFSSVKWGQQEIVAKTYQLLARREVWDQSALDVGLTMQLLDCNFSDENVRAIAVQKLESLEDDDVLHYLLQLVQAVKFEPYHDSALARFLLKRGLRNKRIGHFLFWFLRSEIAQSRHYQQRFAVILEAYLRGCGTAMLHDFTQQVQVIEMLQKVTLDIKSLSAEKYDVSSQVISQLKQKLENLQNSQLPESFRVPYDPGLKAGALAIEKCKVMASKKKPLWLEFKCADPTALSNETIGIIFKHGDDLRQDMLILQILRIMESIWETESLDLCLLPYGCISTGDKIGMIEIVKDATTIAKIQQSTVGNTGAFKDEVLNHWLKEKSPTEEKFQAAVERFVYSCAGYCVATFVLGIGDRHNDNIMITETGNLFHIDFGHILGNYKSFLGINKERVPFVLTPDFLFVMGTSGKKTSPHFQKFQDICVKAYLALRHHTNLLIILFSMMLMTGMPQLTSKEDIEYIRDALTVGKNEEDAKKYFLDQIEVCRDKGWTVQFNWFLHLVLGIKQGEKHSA

`Nc1nc(N)c2nc(-c3cccc4[nH]ccc34)cnc2n1` [Compound III, 6-(1H-Indol-4-yl)pteridine-2,4-diamine] registered an IC50 in assay [1] of 85 nM. In addition, in assay [2], the PI3K isoform selectivity entry was “less selective”.

What is called IC50 is the midpoint of a concentration-inhibition curve. A high value points to lower potency.
